# Like-named read-outs stand apart in the source and are kept apart here.
# Key:
# HIV-1 NL4-3 Ba-L = experiment: microbe, parasite or virus in culture; type: cell-based
# Description: Compounds were first dissolved in DMSO to reach a concentration of 20 mM. They were further diluted to a 200 µM working stock and then further diluted to reach a starting concentration of 10 µM in the culture plate. U87-CD4-CCR5 cells were seeded in quadruplicate at 4000 cells/well in a final volume of 100 µL. The next day, 24 µL of the compound was added in serial 1:2 dilutions to the cells. Two hours later, 25 µL of infectious virus (NL4-3 Ba-L) were added to the cells with a TCID50 of 250. AZT at 10 µM was included as an inhibition control. The medium was replenished in the presence of compounds once every 3 to 4 days. The supernatant was collected every 3–4 days and analyzed for virus production by an in-house p24 capture ELISA. IC50 was calculated using “Quest Graph™ IC50 Calculator” (AAT Bioquest, Inc., https://www.aatbio.com/tools/ic50-calculator). Cytotoxicity of the compound was tested on U87-CD4-CCR5 cells in parallel by MTT assay (at the same protocol as in Sect. 3.5 but after 11 days of incubation))[39].
# monomeric HIV-1 CA = biological target: T1, monomeric HIV-1 CA (Human immunodeficiency virus type 1 group M subtype B, UniProt P12493); experiment: Affinity for HIV-1 CA by microscale thermophoresis (MST); type: binding
# T1 construct: the capsid protein (CA) of the Gag polyprotein; made in house
# Description: The affinity of compound 696 for HIV-1 CA in vitro was measured by microscale thermophoresis (MST) as described previously for FIV CA [31]. Due to its intrinsic autofluorescence interfering with MST, the binding of compound 314 to CA was measured using isothermal microcalorimetry (ITC) with a Microcal iTC200 calorimeter (Malvern Instruments, Worcestershire, UK). The calorimeter cell contained 200 µL of recombinant HIV-1 CA (kind gifted by Drs Verrier and Coiffier) at 0.78 mg/mL in phosphate buffer (NaH2PO4/Na2HPO4) 50 mM pH 7.5, NaCl 100 mM, 1% DMSO [v/v]. Compound 314 at 200 µM was then injected sequentially into the calorimeter cell (injection #1: 1 µL, injections #2-#20: 2 µL) at 120 s intervals. Data were analyzed using the OriginLab8.5® software according to the manufacturer’s instructions.
# [1] = Cytotoxicity in murine macrophages (MTT); type: cell-based; conditions: mouse, J774.1 murine macrophages; 48 hs
# Description: (§1) TZM-bl cells, U87-CD4-CCR5, murine macrophages (J774.1), and THP-1 monocytes (ATCC®TIB-202™) were grown following ATCC recommendations. Cells were seeded in a 96-well plate (10^4 cells in 200 µL culture medium) and incubated at 37 °C in a 5% CO2 atmosphere for 48 h, to allow cell adhesion before drug testing. For stimulation (THP-1 monocytes), cells were incubated with 100 nM of phorbol 12-myristate 13-acetate (PMA) for 48 h. […] A vehicle for control (0.4% DMSO) and negative wells (cells in medium) was used in each test. […] After removing the medium, formazan crystals were dissolved in 180 µL of DMSO and 20µL of MTT buffer (0.1 M glycine, 0.1 M NaCl, 0.5 mM EDTA, pH 10.5), and the absorbance at 560 nm was measured. […] Tests were performed in triplicate, in two independent experiments.
# [2] = Cytotoxicity in human macrophages (PMA-stimulated THP-1 monocytes, MTT); type: cell-based; conditions: PMA-stimulated THP-1 monocytes (human macrophages), 48hs
# Description: as §1
# [3] = tested on: HIV-1 reverse transcription (pol viral DNA); experiment: qPCR quantification of reverse transcribed viral DNA in U87-CD4-CCR5 cells; type: cell-based; conditions: 10 µM, cells preincubated, DNA extracted 48 h post-infection
# Description: U87-CD4-CCR5 cells were plated in a 24-wells plate at 1.25 × 10^5 cells per well. […] Total DNA was extracted 48 h post-infection using the AllPrep DNA/RNA Mini Kit (Qiagen, Venlo, Netherlands). […] The following program was used in the LightCycler 480 Real-Time PCR System (Roche, Basel, Switzerland): pre-incubation: 95 °C for 3 min, pre-amplification: 2 cycles of 95 °C for 15 s and 49 °C for 15 s, amplification: 40 cycles of 95 °C for 10 s, 58 °C for 20 s, 72 °C for 30 s, melting curve stage: 95 °C for 5 s, 55 °C for 1 min and then 97 °C with acquisition every 10 °C, cooling stage: 40 °C for 10 s. Serial dilution of the 8E5 cell line which contains 1 copy of HIV-1 proviral DNA per cell was used as a standard curve for viral RT products [46]. […] Results were calculated as the number of copies of Pol per copy of β-actin. Statistical analysis was performed using an unpaired, two-tailed, Mann–Whitney test with GraphPad Prism 7.0 software. Tests were performed in quadruplicate, in two independent experiments.
# [4] = Cytotoxicity in TZM-bl cells (MTT); type: cell-based, human; conditions: human, TZM-bl cells; 48hs
# Description: as §1
# TZM-bl cells = experiment: Cytotoxicity in TZM-bl cells (MTT); type: cell-based, human; conditions: Homo sapiens, TZM-bl; Table 1, 696, 48hs
# Description: as §1
# [5] = Liver fraction stability (thin-layer chromatography); type: in vitro ADME, rat
# Description: For the determination of liver fraction stability, rat liver microsomal and cytosolic proteins were used (MOLTOX™ manufactures products, North Carolina, US). Rat liver microsomal and cytosolic proteins were used according to the manufacturer’s recommendations and the methodology previously described. […] The final concentration of 696 in the aqueous medium was 100 µM and was prepared from a stock solution in DMSO. The solutions were further homogenized and incubated at 37 °C for 1 to 4 h following the OECD recommendation for drug development. After that, thin-layer chromatography of ethyl acetate extracts was performed to evaluate the presence of metabolites.
# HIV-1 CA = HIV-1 CA (Human immunodeficiency virus type 1 group M subtype B, UniProt P12493); experiment: HIV-1 CA assembly inhibition assay (absorbance at 340 nm); type: biochemical; design: the capsid protein (CA) of the Gag polyprotein; made in house; host or cells: Escherichia coli BL21(DE3) pLysS
# Description: The CA assembly assay was performed in a final volume of 70 µL in 384-well plates, with a final concentration of 5 mg/mL of purified recombinant HIV-1 CA in Phosphate/NaCl Buffer (NaH2PO4/Na2HPO4 50 mM, NaCl 100 mM, pH 7.4), as described for FIV CA [27, 31]. Absorbance was measured at 340 nm every 30 s in a multiplate reader VarioskanTM Flash Multimode Reader (Thermo Scientific, MA, US) at 37 °C for 30 min. The compounds were tested at a fixed initial dose of 25 or 50 µM (at 0.5% DMSO [v/v]) by adding 1 µL of the concentrated ligand to the well before starting the measurement. The controls were CA at 5 mg/mL in only 0.5% DMSO [v/v] and CA without DMSO. The criteria to select active compounds were the observation of at least 50% of assembly inhibition at these doses, based on the reduction of the OD value at 340 nm at the plateau value compared to the controls.
structure (smiles),measurement,setting,value
"Cc1ccc2c(c1)nc(-c1ccc(N(C)C)cc1)n2CCc1ccccc1 [compound 696, 2-(4-N,N-dimethylaminophenyl)-5-methyl-1-phenethyl-1H-benzimidazole]",EC50/IC50,HIV-1 NL4-3 Ba-L,> 21
same,IC50,"HIV-1 NL4-3 Ba-L; Human immunodeficiency virus 1, U87/CD4/CCR5, 264 h, read-out: IC50, inhibition of HIV-1 replication",3 µM
same,IC50,"HIV-1 NL4-3 Ba-L; Human immunodeficiency virus 1, U87/CD4/CCR5, read-out: IC50 in U87 (μM)",2.3 ± 0.6 µM
same,inhibition of HIV-1 replication (in words),"HIV-1 NL4-3 Ba-L; U87-CD4-CCR5 cells, serial 1:2 dilutions from 10 µM",clear dose–response inhibition
same,inhibition of HIV-1 replication,"HIV-1 NL4-3 Ba-L; U87-CD4-CCR5 cells, two highest concentrations tested, after 11 days",more than 80%
same,selective activity between mammalian cells and antiviral activity,HIV-1 NL4-3 Ba-L; cytotoxicity EC50 vs antiviral IC50,at least 10 times
same,Kd,monomeric HIV-1 CA,69 ± 6 µM
same,EC50 at 48 h,[1],> 50 µM
same,EC50 at 48 h,[2],> 100 µM
same,inhibition of HIV-1 reverse transcription (pol viral DNA by qPCR),[3],did not show any significant effect
same,EC50 at 48 h,[4],> 50 µM
same,EC50,TZM-bl cells,> 25 µM
same,metabolic stability (in words),[5],high metabolic stability
same,stability under microsomal and cytosolic fraction derived from rat liver,"[5]; 100 µM, 37 °C, TLC, absence of new metabolites",stable for 4 h
same,half-life at 100 µM,"[5]; rat, rat liver microsomes, read-out: Metabolic stability, half-life (t1/2)",> 240 min
same,Effect in p24 multimerization in vitro,HIV-1 CA,inhibited
same,interference with the assembly of HIV-1 CA in vitro,"HIV-1 CA; compounds at 25 or 50 µM, CA 5 mg/mL, 30 min",interference with the assembly
same,Effect in p24 multimerization in vitro,HIV-1 CA; listed as C00002,inhibition
